Publication PMC10916382, “Repurposing screen identifies novel candidates for broad-spectrum coronavirus antivirals and druggable host targets” (Antimicrobial Agents and Chemotherapy, 2024)
Where two headings read alike, the source gives them in different places.

How the values were obtained:
SARS-CoV-2 [1] = conditions: for SI (CC50/IC50): CC50 from LDH assay / IC50 from qRT-PCR
in vitro [2] = conditions: human
SARS-CoV-2 [3] = format: cell-based; conditions: dose range 0.15 µM to 10 µM, viral genome copies in apical washes and cellular lysates
HCoV-229E [4] = experiment: microbe, parasite or virus in culture; format: cell-based, Homo sapiens sapiens
[5] = tested on: primary human airway epithelial cells; conditions: dose range 0.15 µM to 10 µM, cellular lysates
SARS-CoV-2 [6] = conditions: Calu-3 cells; for outcome against confirmation criteria of the SARS-CoV-2 counter-screen (<50% infected cell, >75% total cells): single dose of 5 µM; for total cell numbers / reduction of infected cell numbers: 5 µM, relative to DMSO; for total cell numbers: DAPI; for reduction of infected cell numbers: N protein immunofluorescence
SARS-CoV-2 [7] = experiment: microbe, parasite or virus in culture; conditions: Severe acute respiratory syndrome coronavirus 2, Calu-3, 48 h
Huh-7.5/F-Luc cells = conditions: for CC50 (µM): Huh-7.5 cells, dose series, maximum tested dose 5 µM; for % cell viability at max. dose [5 µM]: at max. dose 5 µM
Calu-3 cells = conditions: LDH release, non-infected Calu-3 cells, 48 hours of drug treatment
HCoV-229E [8] = tested on: HCoV-229E; set-up: method as in PMID 34446714; conditions: Huh-7.5 cells; cited from earlier work
SARS-CoV-2 [9] = conditions: Calu-3 and Vero cells; cited from earlier work
HCoV-229E [10] = experiment: Twelve-step dose titration against HCoV-229E infection on Huh-7.5/F-Luc/Cas9 cells; format: cell-based, Homo sapiens sapiens; conditions: n = 3
in vitro [11] = conditions: Anti-SARS-CoV-2 screening on Calu-3 cells: viability [% of control], Calu-3 cells
in vitro [12] = conditions: human; remark: listed apart in the source
Huh-7.5/F-Luc/Cas9 cells = conditions: twelve-step 1:3 dilutions, n = 3
[13] = Human coronavirus 229E, Huh7.5, twelve-step 1:3 dilutions

| Compound | SI (CC50/IC50) (SARS-CoV-2 [1]; Calu-3 cells) | CC50 (in vitro [2]) [nM] | antiviral activity against SARS-CoV-2 in HAE cells (SARS-CoV-2 [3]) | cytotoxicity in HAE cells, GAPDH mRNA [5] | IC50 (SARS-CoV-2 [7]) [nM] | IC90 (SARS-CoV-2 [7]) [nM] | CC50 (µM) (Huh-7.5/F-Luc cells) | total cell numbers (SARS-CoV-2 [6]) [%] | reduction of infected cell numbers (SARS-CoV-2 [6]) | Anti-SARS-CoV-2 screening on Calu-3 cells: intracellular SARS-CoV-2 infection measured via immunofluorescence imaging [% of control] (SARS-CoV-2 [6]) | also measured |
| --- | --- | --- | --- | --- | --- | --- | --- | --- | --- | --- | --- |
| CC1(C)CC[C@]2(NC(=O)C(C)(F)F)CC[C@]3(C)[C@H](C(=O)C=C4[C@@]5(C)C=C(C#N)C(=O)C(C)(C)[C@@H]5CC[C@]43C)[C@@H]2C1 [Omaveloxolone] | > 8.66 | > 1250 | inhibited SARS-CoV-2 infection at 1.25 µM and 2.5 µM | maintaining high cell viability | 140 | 2410 |  |  |  |  | IC50 (HCoV-229E [4]; Human coronavirus 229E, Huh7.5, 48 h, read-out: IC50 against HCoV-229E): 78 nM; outcome against confirmation criteria of the SARS-CoV-2 counter-screen (<50% infected cell, >75% total cells) (SARS-CoV-2 [6]): did not meet the inclusion criteria |
| Cc1cc(-c2nc3cc(F)ccc3s2)ccc1NC(=O)[C@@H](N)CCCCN [Phortress, reference compound] | 1.49 |  | dose dependently inhibited SARS-CoV-2 infection | without reducing GAPDH mRNA levels |  |  | greater than maximum tested dose | ≥ 75 | more than 50% | 46.05 % of control | IC90 (SARS-CoV-2 [1]; Calu-3 cells, viral genome copies in supernatant 48 hours post-infection): 164000 nM; IC50 (SARS-CoV-2 [1]; Calu-3 cells, viral genome copies in supernatant 48 hours post-infection, n = 3): 13300 nM; % cell viability at max. dose [5 µM] (Huh-7.5/F-Luc cells): 252.77%; IC50 (HCoV-229E [4]; Huh-7.5/F-Luc cells, 8-step dose series, 48 hours at 33°C, read-out: IC50 against HCoV-229E): 230 nM; CC50 (Calu-3 cells): 19900 nM; Anti-SARS-CoV-2 screening on Calu-3 cells: viability [% of control] (SARS-CoV-2 [6]): 106.32 % of control |
| CN1CC[C@H](c2c(O)cc(O)c3c(=O)cc(-c4ccccc4Cl)oc23)[C@H](O)C1 [Flavopiridol] | 2.21 | 460 | the reduction in viral genome copies could not be separated from an increase in cytotoxicity |  | 210 | 520 |  | ≥ 75 | more than 50% |  | outcome against confirmation criteria of the SARS-CoV-2 counter-screen (<50% infected cell, >75% total cells) (SARS-CoV-2 [6]): qualified as a hit in both imaging- and qRT-PCR-based assays |
| Cc1ccccc1N=Nc1ccc(NC(=O)c2ccnn2C)c(C)c1 [CH223191] |  |  |  |  |  |  |  |  |  |  | effect on HCoV-229E infection (HCoV-229E [8]): decreased HCoV-229E and SARS-CoV-2 infection; effect on SARS-CoV-2 infection (SARS-CoV-2 [9]): decreased HCoV-229E and SARS-CoV-2 infection |
| CC/C(=C(/C#N)c1ccc(OCCN(CC)CC)cc1)c1ccc(Cl)cc1 [P-3622, Z-3-(4-chlorophenyl)-2-(4-(2-(diethylamino)ethoxy)phenyl)pent-2-enenitrile] | 2.09 | 19500 | limited antiviral activity | well tolerated | 9350 | 23400 | greater than maximum tested dose |  |  | 97.91 % of control | IC50 (HCoV-229E [10]; [13]): 359 nM; IC50 (HCoV-229E [4]; Human coronavirus 229E, Huh7.5): 880 nM; viability (in vitro [11]): 97.7% |
| C#CCOc1ccc2c(c1)c(-c1ccc(C(C)C)cc1)nc(=O)n2Cc1ccc(Br)cc1 [AXT-914, reference compound] | > 7.08 |  | dose dependently inhibited SARS-CoV-2 infection | without reducing GAPDH mRNA levels |  |  | greater than maximum tested dose | ≥ 75 | more than 50% | 20.74 % of control | IC50 (SARS-CoV-2 [1]): 5650 nM; IC90 (SARS-CoV-2 [1]): 21800 nM; % cell viability at max. dose [5 µM] (Huh-7.5/F-Luc cells): 127.46%; IC50 (HCoV-229E [4]; HCoV 229E infection, dose series, max. dose 5 µM, read-out: IC50): 50 nM; CC50 (Calu-3 cells): > 40000 nM; Anti-SARS-CoV-2 screening on Calu-3 cells: viability [% of control] (SARS-CoV-2 [6]): 76.99 % of control |
| C=C(CC[C@]12O[C@H](C(=O)O)[C@@](O)(C(=O)O)[C@](C(=O)O)(O1)[C@H](OC(=O)/C=C/[C@@H](C)C[C@@H](C)CC)[C@H]2O)[C@@H](OC(C)=O)[C@H](C)Cc1ccccc1 [Zaragozic Acid A, Zaragozic acid A] |  |  |  |  |  |  |  |  |  |  | IC50 (HCoV-229E [10]; [13]): 1930 nM; CC50 (in vitro [12]): > 100000 nM |
| F/C(COc1ccc2c(c1)[nH]c1ccccc12)=C1/CN2CCC1CC2 [YM-53601] |  |  |  |  |  |  |  |  |  |  | IC50 (HCoV-229E [10]; twelve-step 1:3 dilutions): 1610 nM; CC50 (Huh-7.5/F-Luc/Cas9 cells): 28100 nM |
